What was measured:
[1] = test system: MM1.S human myeloma cells; assay: Human MM1.S xenograft model, combination screening with pomalidomide/dexamethasone; format: in vivo, mice; settings: 100 mg/kg daily for 19 days oral plus pomalidomide 10 mg/kg / dexamethasone 0.3 mg/kg; compared to ID #2 or ID #3 combinations
Experimental: Group 3 (G3) was treated with Compound ID #1 at 100 mg/kg daily for 19 days. Group 4 (G4) was treated with Compound ID #2 at 100 mg/kg daily for 19 days. Group 5 (G5) was treated with Compound ID #3 at 100 mg/kg daily for 19 days. […] Vehicle and Compound ID #1, Compound ID #2 and Compound ID #3 were administered orally via oral gavage. Body weights and tumor measurements were collected twice weekly.

MFE280 = assay: CellTiter-Glo cell viability assay, MFE280; format: cell-based; settings: Uterine; for IC50: Homo sapiens, MFE-280, MFE280, 72 hours
Experimental: (§1) Cell Viability Assay—Cell viability was measured by the CellTiter-Glo® cell viability assay Promega (Madison, Wis.). The CellTiter-Glo® Luminescent Cell Viability Assay is a homogeneous method to determine the number of viable cells in culture based on quantitation of the ATP present, which signals the presence of metabolically active cells. Following treatment, CellTiter-Glo® is added to treatment wells and incubated at 37° C. luminescence values were measured at using a Molecular Devices Spectramax microplate reader.
(§2) Single Agent Studies—Cells were grown to 70% confluency, trypsinized, counted, and seeded in 96 well flat-bottom plates at a final concentration of 2.5×10^3-5×10^3 cells/well (Day 0). Cells were allowed to incubate in growth media for 24 hours. Treatment with the test agents began on Day 1 and continued for 72 hours. At the 72-hour time point, treatment-containing media was removed. Viable cell numbers are quantified by the CellTiter-Glo® cell viability assay as described above. Experiments were run with triplicate concentrations to determine growth inhibitory activity. Results from these studies were used to calculate an IC50 value (concentration of drug that inhibits cell growth by 50 percent of control) for each compound.
(§3) Data Collection—For single agent and combination studies, data from each experiment was collected and expressed as % Cell Growth using the following calculation: % Cell Growth=(ftest/fvehicle)×100
(§4) Where ftest is the luminescence of the tested sample, and fvehicle is the luminescence of the vehicle in which the drug is dissolved. Dose response graphs and IC50 values were generated using Prism 6 software (GraphPad).

% PPB, mouse = format: in vitro ADME; settings: plasma; mouse (m)
RS4-11 = assay: CellTiter-Glo cell viability assay, RS4-11; format: cell-based; settings: ALL; for IC50: Homo sapiens, RS4-11, 72 hours
Experimental: as §1, §2, §3, §4

KMS-11 = assay: CellTiter-Glo cell viability assay, KMS-11; format: cell-based; settings: Myeloma; for IC50: Homo sapiens, KMS-11, 72 hours
Experimental: as §1, §2, §3, §4

H1437 = assay: CellTiter-Glo cell viability assay, H1437; format: cell-based; settings: NSCLC; for IC50: Homo sapiens, NCI-H1437, H1437, 72 hours
Experimental: as §1, §2, §3, §4

% PPB, human = format: in vitro ADME; settings: plasma; human (hu)
% PPB, rat = format: in vitro ADME; settings: plasma; rat (r)
[2] = test system: MM1.S human myeloma cells; assay: Human MM1.S xenograft model, single agent screening; format: in vivo, mice; settings: 100 mg/kg daily for 19 days, oral gavage; compared to Compound ID #2 or Compound ID #3
Experimental: In vivo efficacy studies of Compound ID #1, Compound ID #2, and Compound ID #3 were tested in human MM1.S xenograft model as shown in FIG. 1. […] Group 2 (G2) was treated with Compound ID #1 at 100 mg/kg daily for 19 days. Group 3 (G3) was treated with Compound ID #2 at 100 mg/kg daily for 19 days. Group 4 (G4) was treated with Compound ID #3 at 100 mg/kg daily for 19 days. Vehicle and Compound ID #1, Compound ID #2 and Compound ID #3 were administered orally via oral gavage. Body weights and tumor measurements were collected twice weekly.

GIST48 = assay: CellTiter-Glo cell viability assay, GIST48; format: cell-based; settings: GIST; for IC50: Homo sapiens, GIST48, 72 hours
Experimental: as §1, §2, §3, §4

ES2 = assay: CellTiter-Glo cell viability assay, ES2; format: cell-based; settings: Ovarian; for IC50: Homo sapiens, ES-2, ES2, 72 hours
Experimental: as §1, §2, §3, §4

MDA468 = assay: CellTiter-Glo cell viability assay, MDA468; format: cell-based; settings: Breast; for IC50: MDA468, 72 hours
Experimental: as §1, §2, §3, §4

U266 = assay: CellTiter-Glo cell viability assay, U266; format: cell-based; settings: Myeloma; for IC50: Homo sapiens, U-266, U266, 72 hours
Experimental: as §1, §2, §3, §4

Permeability (PAMPA) = format: in vitro ADME; settings: read-out: Permeabiltiy (PAMPA)
RPMI-8226 = assay: CellTiter-Glo cell viability assay, RPMI-8226; format: cell-based; settings: Myeloma; for IC50: Homo sapiens, RPMI-8226, 72 hours
Experimental: as §1, §2, §3, §4

SKUT-1B = assay: CellTiter-Glo cell viability assay, SKUT-1B; format: cell-based; settings: Uterine; for IC50: Homo sapiens, Skut1B, 72 hours
Experimental: as §1, §2, §3, §4

With `O=C(NO)c1ccc(Nc2nc3ccccc3n2CC2CCCCC2)cc1` [ID #1, 4-((1-(cyclohexylmethyl)-1H-benzo[d]imidazol-2-yl)amino)-N-hydroxybenzamide] the “anticancer activity (tumor volume) when combined with pomalidomide/dexamethasone” value [1] was “significantly superior anticancer activity”, the IC50 (MFE280) was 5.01 µM and the “Improvement ID #1 over ID #3 Percent” value (MFE280; MFE280) was 48.40%. For the same molecule, the “Improvement ID #1 over ID #3 fold” value (MFE280; MFE280) was 1.94 fold, the fraction unbound (% PPB, mouse) was 0.0045 and the “Improvement ID #1 over ID #3 Percent” value (RS4-11; RS4-11) was 54.92%. The “Improvement ID #1 over ID #3 fold” value (RS4-11; RS4-11) was 2.22 fold, the IC50 (RS4-11) was 1.1 µM and the IC50 (KMS-11) was 1.42 µM. For the same molecule, the “Improvement ID #1 over ID #3 Percent” value (KMS-11; KMS-11) was 52.98%, the “Improvement ID #1 over ID #3 fold” value (KMS-11; KMS-11) was 2.13 fold and the IC50 (H1437) was 2.19 µM. The “Improvement ID #1 over ID #3 Percent” value (H1437; H1437) was 54.28%, the “Improvement ID #1 over ID #3 fold” value (H1437; H1437) was 2.19 fold and the fraction unbound (% PPB, human) was 0.0056. The fraction unbound (% PPB, rat) was 0.0017, the “anticancer activity (tumor volume)” value [2] was “significantly superior anticancer activity” and the “Improvement ID #1 over ID #3 Percent” value (GIST48; GIST48) was 68.87%. The “Improvement ID #1 over ID #3 fold” value (GIST48; GIST48) was 3.21 fold, the IC50 (GIST48) was 1.32 µM and the IC50 (ES2) was 3.98 µM. For the same molecule, the “Improvement ID #1 over ID #3 Percent” value (ES2; ES2) was 69.80%, the “Improvement ID #1 over ID #3 fold” value (ES2; ES2) was 3.31 fold and the “Improvement ID #1 over ID #3 Percent” value (MDA468; MDA468) was 58.63%. For the same molecule, the “Improvement ID #1 over ID #3 fold” value (MDA468; MDA468) was 2.42 fold, the IC50 (MDA468) was 3.86 µM and the IC50 (U266) was 1.17 µM. The “Improvement ID #1 over ID #3 Percent” value (U266; U266) was 71.46%, the “Improvement ID #1 over ID #3 fold” value (U266; U266) was 3.50 fold and the Papp (Permeability (PAMPA)) was 16.8 nm/s. The IC50 (RPMI-8226) was 0.66 µM, the “Improvement ID #1 over ID #3 Percent” value (RPMI-8226; RPMI-8226) was 56.29% and the “Improvement ID #1 over ID #3 fold” value (RPMI-8226; RPMI-8226) was 2.29 fold. The IC50 (SKUT-1B) was 2.51 µM, the “Improvement ID #1 over ID #3 Percent” value (SKUT-1B) was 63.73% and the “Improvement ID #1 over ID #3 fold” value (SKUT-1B) was 2.76 fold.

`O=C(NO)c1ccc(Nc2nc3ccccc3n2C2CCCCCC2)cc1` [ID #3, 4-((1-cycloheptyl-1H-benzo[d]imidazol-2-yl)amino)-N-hydroxybenzamide] gave an IC50 (MFE280) of 9.71 µM, a fraction unbound (% PPB, mouse) of 0.0052 and an IC50 (RS4-11) of 2.44 µM. For the same molecule, the IC50 (KMS-11) was 3.02 µM, the IC50 (H1437) was 4.79 µM and the fraction unbound (% PPB, human) was 0.0064. It also gave a fraction unbound (% PPB, rat) of 0.0055, an IC50 (GIST48) of 4.24 µM and an IC50 (ES2) of 13.2 µM. It also gave an IC50 (MDA468) of 9.33 µM, an IC50 (U266) of 4.1 µM and a Papp (Permeability (PAMPA)) of 22 nm/s. The IC50 (RPMI-8226) was 1.51 µM and the IC50 (SKUT-1B) was 6.92 µM.

From patent US11236052B2, “Aminobenzimidazole derivatives, treatments, and methods of inhibiting histone deacetylase” (TRANSLATIONAL DRUG DEVELOPMENT, LLC, priority 2017, dated 2022)
